Calls of active or inactive are those of the source. No rule for the calls is given here.
What was measured:
[1] = test system: COLO 205; assay: Growth inhibition of human COLO205 cells after 48 hrs by SRB assay; assay type: functional; settings: COLO 205, 48 h
[2] = target: Ribosomal protein S6 kinase alpha-1 (Homo sapiens, UniProt Q15418)
[3] = test system: Malme-3M; assay: Growth inhibition of human MALME-3M cells after 48 hrs by SRB assay; assay type: functional
[4] = test system: U-251; assay: Growth inhibition of human U251 cells after 48 hrs by SRB assay; assay type: functional; settings: U-251, 48 h
[5] = test system: HL-60(TB); assay: Growth inhibition of human HL-60(TB) cells after 48 hrs by SRB assay; assay type: functional; settings: HL-60, 48 h
[6] = target: T1, Serine/threonine-protein kinase Chk2 (Homo sapiens, UniProt O96017)
T1 sequence (O96017 whole entry): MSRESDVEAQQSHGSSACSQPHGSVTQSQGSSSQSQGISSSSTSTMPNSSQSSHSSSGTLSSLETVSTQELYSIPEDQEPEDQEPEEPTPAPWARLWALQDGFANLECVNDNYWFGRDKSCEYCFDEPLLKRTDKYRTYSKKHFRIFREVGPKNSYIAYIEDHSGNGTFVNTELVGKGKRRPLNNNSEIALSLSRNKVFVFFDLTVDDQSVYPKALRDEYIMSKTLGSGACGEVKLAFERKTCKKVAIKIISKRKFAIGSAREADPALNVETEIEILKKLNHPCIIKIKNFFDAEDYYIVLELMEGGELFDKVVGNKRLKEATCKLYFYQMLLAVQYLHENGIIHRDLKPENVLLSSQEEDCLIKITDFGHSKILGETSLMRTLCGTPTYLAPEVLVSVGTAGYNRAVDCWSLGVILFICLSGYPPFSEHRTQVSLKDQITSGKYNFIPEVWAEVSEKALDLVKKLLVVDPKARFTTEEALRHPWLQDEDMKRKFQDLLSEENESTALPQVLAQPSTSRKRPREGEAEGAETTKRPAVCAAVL
Description: Inhibition of CHK2 assessed as inhibition of substrate phosphorylation using fluorescent peptide substrate by microplate reader assay

[7] = test system: HCC 2998; assay: Growth inhibition of human HCC2998 cells after 48 hrs by SRB assay; assay type: functional; settings: HCC 2998, 48 h
[8] = test system: NCI-H23; assay: Growth inhibition of human NCI-H23 cells after 48 hrs by SRB assay; assay type: functional; settings: NCI-H23, 48 h
[9] = test system: MDA-MB-468; assay: Growth inhibition of human MDA-MB-468 cells after 48 hrs by SRB assay; assay type: functional; settings: MDA-MB-468, 48 h
[10] = test system: OVCAR-3; assay: Growth inhibition of human OVCAR3 cells after 48 hrs by SRB assay; assay type: functional; settings: OVCAR-3, 48 h
[11] = test system: M14; assay: Growth inhibition of human M14 cells after 48 hrs by SRB assay; assay type: functional; settings: M14, 48 h
[12] = target: Ribosomal protein S6 kinase alpha-3 (Homo sapiens, UniProt P51812)
Sequence of Ribosomal protein S6 kinase alpha-3 (P51812 whole entry): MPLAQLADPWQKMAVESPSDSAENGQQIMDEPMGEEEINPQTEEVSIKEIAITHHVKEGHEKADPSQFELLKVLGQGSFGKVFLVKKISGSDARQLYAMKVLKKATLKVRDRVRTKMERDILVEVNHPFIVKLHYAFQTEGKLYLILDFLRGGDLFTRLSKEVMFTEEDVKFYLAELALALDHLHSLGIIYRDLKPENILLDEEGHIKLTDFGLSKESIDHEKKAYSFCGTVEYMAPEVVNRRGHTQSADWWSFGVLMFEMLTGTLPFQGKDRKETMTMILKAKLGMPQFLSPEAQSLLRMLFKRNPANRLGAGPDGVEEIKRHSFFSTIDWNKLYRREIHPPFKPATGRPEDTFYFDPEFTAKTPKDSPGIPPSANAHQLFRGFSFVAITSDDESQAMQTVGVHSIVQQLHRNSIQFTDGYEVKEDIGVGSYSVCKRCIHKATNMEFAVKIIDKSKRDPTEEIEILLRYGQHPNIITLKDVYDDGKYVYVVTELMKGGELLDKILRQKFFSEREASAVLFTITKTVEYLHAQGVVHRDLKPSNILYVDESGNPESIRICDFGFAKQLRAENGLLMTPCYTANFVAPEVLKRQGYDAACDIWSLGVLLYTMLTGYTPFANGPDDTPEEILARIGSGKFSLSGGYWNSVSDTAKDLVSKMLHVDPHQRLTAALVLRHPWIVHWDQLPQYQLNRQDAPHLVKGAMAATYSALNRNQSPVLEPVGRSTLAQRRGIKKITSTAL

[13] = test system: MDA-MB-435; assay: Growth inhibition of human MDA-MB-435 cells after 48 hrs by SRB assay; assay type: functional; settings: MDA-MB-435, 48 h
[14] = target: T2, Aurora kinase A (Homo sapiens) (UniProt O14965); assay: Inhibition of Aurora kinase A assessed as inhibition of substrate phosphorylation using fluorescent peptide substrate up to 100 uM by microplate reader assay
T2 sequence (whole entry): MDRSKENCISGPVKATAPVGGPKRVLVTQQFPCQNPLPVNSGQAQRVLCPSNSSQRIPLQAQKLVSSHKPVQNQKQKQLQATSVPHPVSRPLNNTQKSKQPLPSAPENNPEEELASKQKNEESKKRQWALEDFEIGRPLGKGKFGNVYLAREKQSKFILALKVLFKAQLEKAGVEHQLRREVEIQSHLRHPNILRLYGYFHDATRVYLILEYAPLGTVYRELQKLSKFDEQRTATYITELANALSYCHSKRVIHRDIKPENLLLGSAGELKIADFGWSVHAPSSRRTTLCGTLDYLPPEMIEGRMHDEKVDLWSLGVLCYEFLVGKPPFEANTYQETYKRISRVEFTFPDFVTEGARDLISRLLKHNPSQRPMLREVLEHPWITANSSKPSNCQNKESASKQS

[15] = test system: OVCAR-4; assay: Growth inhibition of human OVCAR4 cells after 48 hrs by SRB assay; assay type: functional; settings: OVCAR-4, 48 h
[16] = target: T1, Serine/threonine-protein kinase Chk2; remark: listed apart in the source
[17] = test system: 786-0; assay: Growth inhibition of human 786-0 cells after 48 hrs by SRB assay; assay type: functional; settings: 786-0, 48 h
[18] = test system: KM12; assay: Growth inhibition of human KM12 cells after 48 hrs by SRB assay; assay type: functional; settings: KM12, 48 h
[19] = test system: HCT-15; assay: Growth inhibition of human HCT15 cells after 48 hrs by SRB assay; assay type: functional; settings: HCT-15, 48 h
[20] = test system: RXF 393; assay: Growth inhibition of human RXF393 cells after 48 hrs by SRB assay; assay type: functional; settings: RXF 393, 48 h
[21] = test system: K562; assay: Growth inhibition of human K562 cells after 48 hrs by SRB assay; assay type: functional; settings: K562, 48 h
[22] = target: T3, Serine/threonine-protein kinase Chk1 (Homo sapiens, UniProt O14757)
T3 sequence (O14757 whole entry): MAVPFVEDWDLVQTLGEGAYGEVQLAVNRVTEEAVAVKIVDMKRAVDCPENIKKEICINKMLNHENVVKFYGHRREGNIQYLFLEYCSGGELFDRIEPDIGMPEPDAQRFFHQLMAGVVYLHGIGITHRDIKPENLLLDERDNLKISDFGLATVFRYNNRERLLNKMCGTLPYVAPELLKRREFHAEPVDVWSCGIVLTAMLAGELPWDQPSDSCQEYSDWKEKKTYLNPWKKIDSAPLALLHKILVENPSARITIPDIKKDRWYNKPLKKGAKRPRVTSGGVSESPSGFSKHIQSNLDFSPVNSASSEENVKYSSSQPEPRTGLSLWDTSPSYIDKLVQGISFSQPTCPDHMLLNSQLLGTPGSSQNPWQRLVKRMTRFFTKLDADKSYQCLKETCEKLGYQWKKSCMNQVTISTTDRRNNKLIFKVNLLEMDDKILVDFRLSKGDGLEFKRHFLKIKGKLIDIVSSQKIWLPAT

[23] = test system: SNB-19; assay: Growth inhibition of human SNB19 cells after 48 hrs by SRB assay; assay type: functional; settings: SNB-19, 48 h
[24] = test system: CAKI-1; assay: Growth inhibition of human Caki1 cells after 48 hrs by SRB assay; assay type: functional; settings: CAKI-1, 48 h
[25] = test system: T47D; assay: Growth inhibition of human T47D cells after 48 hrs by SRB assay; assay type: functional
[26] = test system: NCI-H226; assay: Growth inhibition of human NCI-H226 cells after 48 hrs by SRB assay; assay type: functional; settings: NCI-H226, 48 h
[27] = test system: SK-OV-3; assay: Growth inhibition of human SKOV3 cells after 48 hrs by SRB assay; assay type: functional; settings: SK-OV-3, 48 h
[28] = read-out: pLC50 (the source's name) (converted)

Sequence of Ribosomal protein S6 kinase alpha-1 (Q15418 whole entry): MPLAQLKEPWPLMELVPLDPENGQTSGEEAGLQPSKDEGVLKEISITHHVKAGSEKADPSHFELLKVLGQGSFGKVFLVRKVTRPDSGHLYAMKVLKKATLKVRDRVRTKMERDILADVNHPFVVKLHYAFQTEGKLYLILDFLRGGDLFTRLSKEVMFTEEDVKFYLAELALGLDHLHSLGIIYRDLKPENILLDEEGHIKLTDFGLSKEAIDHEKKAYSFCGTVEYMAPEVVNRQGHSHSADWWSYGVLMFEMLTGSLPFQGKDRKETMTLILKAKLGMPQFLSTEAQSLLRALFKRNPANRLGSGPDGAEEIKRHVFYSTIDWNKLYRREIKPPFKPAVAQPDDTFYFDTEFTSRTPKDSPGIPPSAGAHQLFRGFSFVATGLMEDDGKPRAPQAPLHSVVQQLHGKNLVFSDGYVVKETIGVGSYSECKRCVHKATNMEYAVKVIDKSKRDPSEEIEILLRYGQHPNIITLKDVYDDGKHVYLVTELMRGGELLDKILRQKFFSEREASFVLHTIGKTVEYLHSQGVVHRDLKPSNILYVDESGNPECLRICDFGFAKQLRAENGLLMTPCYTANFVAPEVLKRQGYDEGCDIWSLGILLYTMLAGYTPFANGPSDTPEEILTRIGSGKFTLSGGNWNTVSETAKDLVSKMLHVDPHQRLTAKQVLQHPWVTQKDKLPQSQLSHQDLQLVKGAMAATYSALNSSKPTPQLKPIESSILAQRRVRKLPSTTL

## N=C(N)N/N=C\c1c(-c2ccc([N+](=O)[O-])cc2)nc2sc(Br)cn12
[1]
  GI50: 166 nM
[1]; [28]
  CC50: 646 nM
[1]; read-out: pTGI (converted)
  TGI: 331 nM
[2]
  IC50: 1180 nM
[3]
  GI50: 1000 nM
[3]; read-out: pTGI (converted)
  TGI: 4.17 µM
[4]
  GI50: 195 nM
[4]; [28]
  CC50: > 100 µM
[5]
  GI50: 219 nM
[6]
  IC50: 88.5 µM
[7]
  GI50: 234 nM
[7]; [28]
  CC50: 2340 nM
[7]; read-out: pTGI (converted)
  TGI: 646 nM
[8]
  GI50: 389 nM
[8]; [28]
  CC50: 3.98 µM
[8]; read-out: pTGI (converted)
  TGI: 4.47 µM
[9]
  GI50: 158 nM
[9]; [28]
  CC50: 646 nM
[9]; read-out: pTGI (converted)
  TGI: 3.24 µM
[10]
  GI50: 204 nM
[10]; [28]
  CC50: 724 nM
[10]; read-out: pTGI (converted)
  TGI: 380 nM
[11]
  GI50: 229 nM
[11]; [28]
  CC50: 1660 nM
[11]; read-out: pTGI (converted)
  TGI: 537 nM
[12]
  IC50: 607 nM
[13]
  GI50: 251 nM
[13]; [28]
  CC50: 5.37 µM
[13]; read-out: pTGI (converted)
  TGI: 7.41 µM
[14]
  inhibition: inactive
[15]
  GI50: 191 nM
[15]; [28]
  CC50: 776 nM
[15]; read-out: pTGI (converted)
  TGI: 380 nM
[16]
  IC50: 1960 nM
[17]
  GI50: 174 nM
[17]; [28]
  CC50: 575 nM
[17]; read-out: pTGI (converted)
  TGI: 316 nM
[18]
  GI50: 200 nM
[18]; [28]
  CC50: 759 nM
[18]; read-out: pTGI (converted)
  TGI: 389 nM
[19]
  GI50: 302 nM
[19]; [28]
  CC50: > 100 µM
[19]; read-out: pTGI (converted)
  TGI: 26.9 µM
[20]
  GI50: 186 nM
[20]; [28]
  CC50: 759 nM
[20]; read-out: pTGI (converted)
  TGI: 372 nM
[21]
  GI50: 40.7 nM
[22]
  IC50: 13.8 µM
[23]
  GI50: 380 nM
[23]; [28]
  CC50: 5.01 µM
[23]; read-out: pTGI (converted)
  TGI: 4.79 µM
[24]
  GI50: 234 nM
[24]; [28]
  CC50: 4.79 µM
[24]; read-out: pTGI (converted)
  TGI: 1070 nM
[25]
  GI50: 170 nM
[25]; read-out: pTGI (converted)
  TGI: 3.63 µM
[26]
  GI50: 1860 nM
[26]; [28]
  CC50: > 100 µM
[26]; read-out: pTGI (converted)
  TGI: 4.47 µM
[27]
  GI50: 148 nM
[27]; [28]
  CC50: 5.62 µM
[27]; read-out: pTGI (converted)
  TGI: 4.47 µM
